Measurements from patent publication US9468670B2, “Melatonin-based treatment and diagnosis of bile duct disease” (Texas A&M University System, priority 2011, dated 2016).

Assays:
Type in all cases: in vivo, rat
AANAT = experiment: Expression of AANAT in liver sections, cholangiocytes, pineal gland and small intestine (immunohistochemistry, real-time PCR)
Procedure: Male Fischer 344 rats (150-175 gm) were purchased from Charles River Laboratories (Wilmington, Mass.) and housed at 22° C. with 12:12 hr light/dark cycles. The animals had free access to standard chow and drinking water. […] Animal experiments were performed in accordance with a protocol approved by the Scott & White and Texas A&M Health Science Center IACUC. In separate experiments, normal rats treated with Vivo-Morpholino sequences of AANAT (5'-[…] NO:1), to reduce the biliary expression of AANAT) or Morpholino mismatched (5'-[…] NO:2)) (Gene Tools LCC) (1 mg/Kg BW/day) for 1 week via an implanted portal vein catheter. Serum, liver tissue, cholangiocytes, kidney, spleen, small intestine, stomach and heart were collected. Since our goal was to knock-down AANAT expression in the liver without inhibiting AANAT expression in other organs, we used a lower dose (1 mg/Kg/day) of Vivo-Morpholino than that described in the original study (3.0 mg/kg/day (Arora et al., 2002). This approach minimizes the amount of Vivo-Morpholino that circulates outside of the liver after slow infusion into the portal vein. See below for the surgical procedure for the implantation of the portal vein catheter by which AANAT Vivo-Morpholino or Morpholino mismatched was administered. The following was evaluated: (i) the expression of AANAT in liver sections and cholangiocytes from the selected groups of animals; and (ii) the effectiveness of the AANAT Vivo-Morpholino in lowering the expression of AANAT in cholangiocytes was determined. […] Data were expressed as relative mRNA levels ±SEM of the selected gene to glyceraldehyde-3-phosphate dehydrogenase (GAPDH) ratio. […]

[1] = tested on: PER1, BMAL1, CRY1, CLOCK, MT1 and MT2; experiment: Expression of clock genes and MT1/MT2 in cholangiocytes from treated rats (real-time PCR, FACS)
Procedure: Male 344 Fischer rats (150-175 g) were purchased from Charles River (Wilmington, Mass.) and kept in a temperature-controlled environment (22° C.) with 12:12 hr light/dark cycles. Animals were fed ad libitum and had free access to food and drinking water. […] Before each surgical procedure, animals were anesthetized with sodium pentobarbital (50 mg/kg BW, IP). All animal experiments were performed in accordance with a protocol approved by the Scott and White and Texas A&M Health Science Center Institutional Animal Care and Use Committee and conform to the Guide for the Care and Use of Laboratory Animals published by the US National Institutes of Health (NIH Publication No. 85-23, revised 1996). In all animals, wet liver weight, body weight, wet liver weight to body weight ratio, and an index of liver cell growth including cholangiocytes were measured ([…] et al., 1988). […] FACS analysis was performed as described (Onori et al., 2010) using a C6 flow cytometer and analyzed by CFlow Software (Accuri Cytometers Inc. Ann Arbor, Mich.). […] The relative quantity of the selected protein (mean selected protein fluorescence) was expressed as mean FL1-A (samples)/mean FL-1A (secondary antibodies only). […] Data were expressed as relative mRNA levels ±SEM of the selected gene to glyceraldehyde-3-phosphate dehydrogenase (GAPDH) ratio.

cholangiocytes = experiment: Biliary proliferation (PCNA, IBDM) and apoptosis (TUNEL) in Morpholino-treated rats; conditions: normal rats, 1 mg/Kg BW/day for 1 week via portal vein catheter
Procedure: In separate experiments, normal rats treated with Vivo-Morpholino sequences of AANAT (5′-[…] (SEQ ID NO:1), to reduce the biliary expression of AANAT) or Morpholino mismatched (5′-[…] (SEQ ID NO:2)) (Gene Tools LCC) (1 mg/Kg BW/day) for 1 week via an implanted portal vein catheter. Serum, liver tissue, cholangiocytes, kidney, spleen, small intestine, stomach and heart were collected. Since our goal was to knock-down AANAT expression in the liver without inhibiting AANAT expression in other organs, we used a lower dose (1 mg/Kg/day) of Vivo-Morpholino than that described in the original study (3.0 mg/kg/day (Arora et al., 2002). This approach minimizes the amount of Vivo-Morpholino that circulates outside of the liver after slow infusion into the portal vein. See below for the surgical procedure for the implantation of the portal vein catheter by which AANAT Vivo-Morpholino or Morpholino mismatched was administered.
Biliary proliferation was determined by measurement of the percentage of PCNA-positive cholangiocytes by immunohistochemistry, and intrahepatic bile duct mass (IBDM) by immunohistochemistry for CK-19 (Mancinelli et al., 2010). Biliary apoptosis was evaluated by semiquantitative terminal deoxynucleotidyltransferase biotin-dUTP nick-end labeling (TUNEL) kit (Chemicon International, Inc., Temecula, Calif.) (Mancinelli et al., 2010). IBDM was determined as the area occupied by CK-19 positive-bile duct/total area×100 (Mancinelli et al., 2010). The morphological changes/damage in liver, spleen, kidney, heart, stomach, and small intestine were evaluated from AANAT Vivo-Morpholino- or mismatch-treated rats by H&E staining. The serum levels of the transaminases, glutamate pyruvate transaminases (SGPT) and glutamic oxaloacetic transaminase (SGOT), alkaline phosphatase (ALP) and total bilirubin were evaluated using a Dimension RxL Max Integrated Chemistry system (Dade Behring Inc., Deerfield Ill.), Chemistry Department, Scott & White.

[2] = normal rats, 1 mg/Kg BW/day 1 week vs. controls

COc1ccc2[nH]cc(CCNC(C)=O)c2c1 [melatonin]
Expression of AANAT in bile ducts (AANAT; BDL rats treated with melatonin (20 mg/L in tap water) 1 week): increased
Expression of MT1 and MT2 in cholangiocytes ([1]; BDL rats treated in vivo vs. regular tap water): decreased
Expression of PER1, BMAL1, CRY1 and CLOCK in cholangiocytes ([1]; normal and BDL rats treated in vivo vs. control cholangiocytes): decreased

AANAT Vivo-Morpholino: Vivo-Morpholino sequence of AANAT 5′-GTTCCCCAGCTTTGGAAGTGGTCCC (SEQ ID NO:1), to reduce the biliary expression of AANAT (all phosphorodiamidate morpholino (PMO); Vivo-Morpholino delivery moiety attached, position not given here, further chemistry not fully specified)
AANAT biliary expression (AANAT; [2]): reduced
AANAT mRNA levels in pineal gland and small intestine (AANAT; [2]): increased
% IBDM (cholangiocytes): 0.45 ± 0.10 %
% PCNA-positive cholangiocytes (cholangiocytes): 8.98 ± 0.6 %
% apoptotic cholangiocytes (cholangiocytes): <5%
